From ChEMBL document CHEMBL5036320, “Discovery of Icenticaftor (QBW251), a Cystic Fibrosis Transmembrane Conductance Regulator Potentiator with Clinical Efficacy in Cystic Fibrosis and Chronic Obstructive Pulmonary Disease” (J Med Chem, 2021)
In brackets after ≈: the same amount, converted by molar mass.

Key:
[1] = target: T1, Cystic fibrosis transmembrane conductance regulator (Homo sapiens, UniProt P13569, F508DEL); assay: Potentiation of CFTR F508del mutant (unknown origin) expressed in CHO cells assessed as chloride transport by measuring membrane potential incubated for 5 to 30 mins in presence of forskolin by Quattro assay; assay type: cell-based
T1 sequence (P13569 as listed by the source): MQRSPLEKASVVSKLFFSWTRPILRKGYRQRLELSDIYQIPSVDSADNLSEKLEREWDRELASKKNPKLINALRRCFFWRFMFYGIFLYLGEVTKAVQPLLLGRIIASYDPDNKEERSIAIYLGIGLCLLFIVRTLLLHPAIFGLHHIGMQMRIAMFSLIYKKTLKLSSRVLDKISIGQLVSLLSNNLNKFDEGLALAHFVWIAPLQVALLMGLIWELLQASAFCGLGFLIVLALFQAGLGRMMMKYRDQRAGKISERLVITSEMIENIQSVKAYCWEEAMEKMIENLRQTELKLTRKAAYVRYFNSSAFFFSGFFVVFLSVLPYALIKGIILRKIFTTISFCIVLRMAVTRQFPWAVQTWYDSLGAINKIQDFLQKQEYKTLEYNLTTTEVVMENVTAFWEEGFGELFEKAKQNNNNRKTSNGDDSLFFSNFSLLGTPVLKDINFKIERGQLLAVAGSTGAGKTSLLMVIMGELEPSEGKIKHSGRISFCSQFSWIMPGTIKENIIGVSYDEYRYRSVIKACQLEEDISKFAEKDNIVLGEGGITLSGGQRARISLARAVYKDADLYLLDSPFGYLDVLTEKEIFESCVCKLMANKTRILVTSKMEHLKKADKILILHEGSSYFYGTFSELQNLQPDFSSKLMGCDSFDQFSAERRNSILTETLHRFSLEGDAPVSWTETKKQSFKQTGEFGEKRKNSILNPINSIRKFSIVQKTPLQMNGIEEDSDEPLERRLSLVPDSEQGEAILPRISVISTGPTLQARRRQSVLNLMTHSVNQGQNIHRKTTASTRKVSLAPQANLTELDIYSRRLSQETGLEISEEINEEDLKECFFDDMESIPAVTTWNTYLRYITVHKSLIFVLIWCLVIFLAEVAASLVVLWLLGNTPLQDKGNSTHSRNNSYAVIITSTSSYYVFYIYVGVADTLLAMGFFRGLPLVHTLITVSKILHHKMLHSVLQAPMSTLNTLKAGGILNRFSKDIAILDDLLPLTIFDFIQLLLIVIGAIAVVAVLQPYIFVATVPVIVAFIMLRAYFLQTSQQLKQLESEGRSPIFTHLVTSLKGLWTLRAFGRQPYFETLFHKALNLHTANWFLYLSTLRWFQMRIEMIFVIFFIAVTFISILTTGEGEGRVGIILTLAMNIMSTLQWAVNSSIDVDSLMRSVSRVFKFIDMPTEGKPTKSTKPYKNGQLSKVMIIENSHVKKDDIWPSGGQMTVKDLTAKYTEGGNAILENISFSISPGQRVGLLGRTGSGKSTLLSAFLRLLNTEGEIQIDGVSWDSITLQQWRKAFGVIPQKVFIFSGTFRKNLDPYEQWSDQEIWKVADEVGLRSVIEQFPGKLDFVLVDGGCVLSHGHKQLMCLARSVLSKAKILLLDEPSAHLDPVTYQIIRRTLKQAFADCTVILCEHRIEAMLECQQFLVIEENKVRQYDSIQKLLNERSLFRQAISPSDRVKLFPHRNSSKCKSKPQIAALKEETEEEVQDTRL

[2] = Solubility of the compound at pH 6.8; assay type: physicochemical; conditions: buffer
[3] = tested on: Cystic fibrosis transmembrane conductance regulator (Homo sapiens), P13569 [F508del]; assay: Potentiation of CFTR F508del mutant (unknown origin) expressed in CHO cells assessed as chloride transport by measuring membrane potential incubated for 5 to 30 mins in presence of forskolin by Quattro assay relative to PG-01; assay type: cell-based; design: concentration or dose not given beside the values; conditions: time 5-30 min
Chain of Cystic fibrosis transmembrane conductance regulator (Homo sapiens), P13569 [F508del] (P13569 as listed by the source): as above

[4] = Clearance in Sprague-Dawley rat at 3 mg/kg, po and 1 mg/kg, iv measured upto 48 hrs by LC MS/MS analysis; assay type: ADME, organism-based; conditions: in vivo
[5] = Cmax in Sprague-Dawley rat at 3 mg/kg, po and 1 mg/kg, iv measured upto 48 hrs by LC-MS/MS analysis; assay type: ADME, organism-based; design: dose 3 mg/kg, time <=48; conditions: in vivo
[6] = Plasma Protein binding in human incubated for 4 hrs by equilibrium dialysis method; assay type: ADME, cell-free; conditions: 4 h
[7] = Oral bioavailability in Sprague-Dawley rat at 3 mg/kg measured upto 48 hrs by LC-MS/MS analysis; assay type: ADME, organism-based; conditions: in vivo
[8] = Plasma Protein binding in Sprague-Dawley rat at 5 uM incubated for 4 hrs by rapid equilibrium dialysis; assay type: ADME, cell-free; conditions: read-out: PPB (converted)
[9] = Mean residence time in Sprague-Dawley rat at 3 mg/kg, po and 1 mg/kg, iv measured upto 48 hrs by LC-MS/MS analysis; assay type: ADME, organism-based; conditions: in vivo
[10] = Volume of distribution in Sprague-Dawley rat at 3 mg/kg, po and 1 mg/kg, iv measured upto 48 hrs by LC-MS/MS analysis; assay type: ADME, organism-based; conditions: in vivo
[11] = Unbound Cmax in Sprague-Dawley rat at 3 mg/kg, po and 1 mg/kg, iv measured upto 48 hrs by LC-MS/MS analysis; assay type: ADME, organism-based; conditions: in vivo
[12] = target: T2, Cystic fibrosis transmembrane conductance regulator (Homo sapiens, UniProt P13569); assay: Potentiation of wild-type CFTR (unknown origin) expressed in FRT cells assessed as chloride transport by measuring membrane potential in presence of forskolin; assay type: cell-based
Target sequence in this assay (P13569 whole entry): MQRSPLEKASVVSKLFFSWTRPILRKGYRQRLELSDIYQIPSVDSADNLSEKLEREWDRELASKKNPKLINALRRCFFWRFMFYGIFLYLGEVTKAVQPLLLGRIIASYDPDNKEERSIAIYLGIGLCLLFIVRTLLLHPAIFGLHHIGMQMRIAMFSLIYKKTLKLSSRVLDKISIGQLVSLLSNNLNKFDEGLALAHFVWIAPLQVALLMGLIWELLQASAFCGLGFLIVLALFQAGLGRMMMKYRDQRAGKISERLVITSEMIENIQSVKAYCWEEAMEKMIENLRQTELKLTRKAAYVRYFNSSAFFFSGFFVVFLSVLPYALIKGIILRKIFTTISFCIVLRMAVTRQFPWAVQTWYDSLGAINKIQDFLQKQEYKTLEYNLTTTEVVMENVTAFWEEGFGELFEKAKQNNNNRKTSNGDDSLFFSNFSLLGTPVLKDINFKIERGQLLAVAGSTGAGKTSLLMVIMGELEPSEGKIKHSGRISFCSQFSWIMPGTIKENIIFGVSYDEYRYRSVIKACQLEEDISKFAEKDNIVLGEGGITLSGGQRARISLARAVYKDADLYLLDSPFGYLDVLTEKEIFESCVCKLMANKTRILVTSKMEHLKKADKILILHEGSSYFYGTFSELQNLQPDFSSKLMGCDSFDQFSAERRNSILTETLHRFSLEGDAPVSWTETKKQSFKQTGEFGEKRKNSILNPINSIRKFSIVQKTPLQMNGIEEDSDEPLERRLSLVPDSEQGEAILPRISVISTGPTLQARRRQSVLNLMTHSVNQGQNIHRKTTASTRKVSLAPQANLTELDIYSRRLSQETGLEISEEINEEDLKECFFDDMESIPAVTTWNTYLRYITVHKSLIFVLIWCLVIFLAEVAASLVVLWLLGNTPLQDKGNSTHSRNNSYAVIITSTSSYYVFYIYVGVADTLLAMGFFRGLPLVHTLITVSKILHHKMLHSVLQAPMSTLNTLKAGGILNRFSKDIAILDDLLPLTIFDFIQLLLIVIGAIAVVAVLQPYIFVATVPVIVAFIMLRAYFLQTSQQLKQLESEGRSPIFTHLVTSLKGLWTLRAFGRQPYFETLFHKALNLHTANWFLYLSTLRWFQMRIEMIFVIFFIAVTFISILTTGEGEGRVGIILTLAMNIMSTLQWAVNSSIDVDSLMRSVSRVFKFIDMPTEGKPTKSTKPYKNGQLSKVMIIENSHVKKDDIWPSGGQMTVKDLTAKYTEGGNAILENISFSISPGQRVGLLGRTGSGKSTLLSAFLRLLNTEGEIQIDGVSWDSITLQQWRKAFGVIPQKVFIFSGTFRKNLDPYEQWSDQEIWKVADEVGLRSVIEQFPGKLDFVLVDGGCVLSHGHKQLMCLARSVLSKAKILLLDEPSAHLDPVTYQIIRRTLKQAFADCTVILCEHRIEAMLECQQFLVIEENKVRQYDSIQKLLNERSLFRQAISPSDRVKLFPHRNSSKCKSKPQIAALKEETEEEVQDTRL

[13] = target: T1, Cystic fibrosis transmembrane conductance regulator; assay: Potentiation of CFTR F508del mutant (unknown origin) expressed in CHO cells assessed as chloride transport by measuring membrane potential preincubated for 5 mins followed by forskolin addition by FLIPR assay; assay type: cell-based
[14] = target: T1, Cystic fibrosis transmembrane conductance regulator; assay: Potentiation of CFTR F508del mutant (unknown origin) expressed in FRT cells assessed as chloride transport by measuring membrane potential in presence of forskolin; assay type: cell-based
[15] = target: T2, Cystic fibrosis transmembrane conductance regulator; assay: Potentiation of wild-type CFTR (unknown origin) expressed in FRT cells assessed as chloride transport by measuring membrane potential in presence of forskolin relative to PG-01; assay type: cell-based; conditions: filed as activator
Target sequence in this assay (P13569 whole entry, looked up): as the sequence (P13569 whole entry) above

[16] = tested on: Cystic fibrosis transmembrane conductance regulator (Homo sapiens), P13569 [F508del]; assay: Potentiation of CFTR F508del mutant (unknown origin) expressed in FRT cells assessed as chloride transport by measuring membrane potential in presence of forskolin relative to PG-01; assay type: cell-based; conditions: filed as activator
[17] = tested on: Cystic fibrosis transmembrane conductance regulator (Homo sapiens), P13569 [F508del]; assay: Potentiation of CFTR F508del mutant (unknown origin) expressed in CHO cells assessed as chloride transport by measuring membrane potential preincubated for 5 mins followed by forskolin addition by FLIPR assay relative to PG-01; assay type: cell-based; conditions: filed as activator

SMILES	EC50 [1]	solubility [2]	Activity ([3]; filed as activator)	further results
CN(C)c1nc(C(=O)NCC(C)(O)C(F)(F)F)c(N)cc1C(F)(F)F (stereo in doubt; 31b)	–	–	93%	–
CC(C)c1ccc(NC(=O)C(c2ccccc2)N(C)C(=O)Cc2c[nH]c3ccccc23)cc1 (stereo unspecified)	1250 nM	–	–	EC50 [12]: 990 nM; EC50 [13]: 390 nM; EC50 [14]: 260 nM
CN(C)c1nc(C(=O)NCC(C)(O)C(F)(F)F)c(N)cc1C(F)(F)F (stereo in doubt; 31a)	20 nM	165 µg/mL (≈ 441 µM)	–	–
CNc1nc(C(=O)NCC(C)(O)C(F)(F)F)c(N)cc1C(F)(F)F (stereo in doubt; 30a) [listing 2 of 2 here]	–	–	91%	–
COC(=O)c1cc(C2CCCO2)c(C(F)(F)F)cc1N (racemic)	462 nM	6 µg/mL (≈ 20.7 µM)	90%	–
Nc1cc(C(F)(F)F)c(Br)nc1C(=O)NCCC(F)(F)F	40 nM	49 µg/mL (≈ 129 µM)	132%	–
CC(O)CNC(=O)c1nc(Br)c(C(F)(F)F)cc1N (racemic)	70 nM	120 µg/mL (≈ 351 µM)	79%	–
CNC(=O)c1nc(Br)c(C(F)(F)F)cc1N	250 nM	–	97%	–
COC(=O)c1cc(-c2cccnc2)c(C(F)(F)F)cc1N	329 nM	56 µg/mL (≈ 189 µM)	100%	–
Cc1nc(C(=O)NCC(C)(O)C(F)(F)F)c(N)cc1C(F)(F)F (racemic)	240 nM	–	99%	–
C[C@@](O)(CNC(=O)c1nc(Br)c(C(F)(F)F)cc1N)C(F)(F)F	30 nM	16 µg/mL (≈ 39 µM)	91%	–

Further lines, with some results ahead:

EC50 [1]	solubility [2]	Activity ([3]; filed as activator)	SMILES	further results
276 nM	13 µg/mL (≈ 36.1 µM)	–	CNc1nc(C(=O)NCC(C)(O)C(F)(F)F)c(N)cc1C(F)(F)F (stereo in doubt; 30a) [listing 1 of 2 here]	–
–	–	101%	CCc1nc(C(=O)NCC(C)(O)C(F)(F)F)c(N)cc1C(F)(F)F (stereo in doubt; 28b)	–
9 nM	82 µg/mL (≈ 205 µM)	113%	C[C@](O)(CNC(=O)c1nc(C(F)(F)F)c(C(F)(F)F)cc1N)C(F)(F)F	clearance [4]: 15 mL/min/kg; Cmax [5]: 595 nM; PPB [6]: 98.6%; bioavailability [7]: 75%; fraction unbound at 4 h, 5 µM [8]: 0.019; MRT [9]: 7.2 h; Vd [10]: 6.4 L/kg; fCmax [11]: 11 nM
5830 nM	–	63%	Nc1cc(C(F)(F)F)c(-c2ccco2)cc1C(=O)O	–
–	–	88%	O=c1c(-c2ccc(O)cc2)coc2cc(O)cc(O)c12	Activity [15]: 138%; Activity [16]: 54%; Activity [17]: 83%
30000 nM	–	–	CN(C)C(=O)c1cc(-c2ccco2)c(C(F)(F)F)cc1N	Activity [3]: 37%
15 nM	60 µg/mL (≈ 160 µM)	116%	CCOc1nc(C(=O)NC[C@](C)(O)C(F)(F)F)c(N)cc1C(F)(F)F	–
3780 nM	< 1 µg/mL	72%	COC(=O)c1ccc(C(F)(F)F)cc1N	–
111 nM	–	–	CNc1nc(C(=O)NCC(C)(O)C(F)(F)F)c(N)cc1C(F)(F)F (stereo in doubt; 30b)	–
